Measurements: US8697661B2, “Use of spinosyns and spinosyn compositions against herpesviridae viral infections” (priority 2009, dated 2014)
Where two headings read alike, the source gives them in different places.

Assays:
[1] = system: Herpes Simplex Virus type 1, McIntyre (HSV1); assay: Viral Plaque Reduction Assay / inhibition of infection assay, HSV1 in Vero cells; assay type: cell-based; conditions: 10 μg/ml spinosad
Vero cells = assay: Toxicity assay on Vero cells; assay type: cell-based, African Green Monkey
[2] = system: Herpes Simplex Virus type 2, Strain MS-HSV2; assay: IC50 assay against HSV2 in Vero cells; assay type: cell-based; conditions: 50-100 infectious units of HSV2
[3] = system: murine Leukemia Virus (ATCC VR-1445); assay: Inhibition of murine Leukemia Virus in feline PG4 cells; assay type: cell-based; conditions: 10 μg/ml spinosad, virus load of 30 infectious units
[4] = system: Respiratory Syncytial Virus Strain A2-RSV; assay type: cell-based; conditions: 9.5 μg/ml spinosad, virus load of 50-100 infectious units, HEp2 cells
H460 cells = assay: Cytotoxicity on H460 cells, ApoTox-Glo Triplex assay; assay type: cell-based
[5] = system: isolated mitochondria of H460 cells; assay: Oxygen consumption in isolated mitochondria, Seahorse XF24; assay type: biochemical; conditions: 4° C. for three hours
[6] = system: Plasmodium falciparum, strain 3D7; conditions: 2% spinosad dispersion in DMSO
[7] = system: macrophage mice cell type J774; conditions: read-out: Cytotoxicity CC50; J774
[8] = system: BxPC-3 Human pancreatic adenocarcinoma; conditions: for Cell Survival (% of Control; mean ± S.D.): 24-hour exposure, 24 h post end of exposure
[9] = system: DU 145 Human prostatic carcinoma cells; conditions: for Cell Survival (% of Control; mean ± S.D.): 24-hour exposure, 24 h post end of exposure
[10] = system: PC-3 Human prostatic adenocarcinoma cells; conditions: for Cell Survival (% of Control; mean ± S.D.): 24-hour exposure, 24 h post end of exposure
[11] = system: MDA-MB-231 Human breast adenocarcinoma cells; conditions: for Cell Survival (% of Control; mean ± S.D.): 24-hour exposure, 24 h post end of exposure
[12] = system: PC-3 Human prostatic adenocarcinoma cells; assay: Cell proliferation assay, PC-3; conditions: 24 hours of exposure (control 3.22)
[13] = system: BxPC-3 Human pancreatic adenocarcinoma; assay: Cell proliferation assay, BxPC-3; conditions: 24 hours of exposure (control 3.02)
[14] = system: DU 145 Human prostatic carcinoma cells; assay: Cell proliferation assay, DU 145; conditions: for Cell Number Doubling Time: 24 hours of exposure (control 2.17)
[15] = system: MDA-MB-231 Human breast adenocarcinoma cells; assay: Cell proliferation assay, MDA-MB-231; conditions: for Cell Number Doubling Time: 24 hours of exposure (control 3.11)
[16] = system: Leishmania donovati MON-2 promastigotes; assay: In vitro test against Leishmania promastigotes; conditions: read-out: Promastigotes IC50; stationary-phase promastigotes, 26° C.
[17] = system: BxPC-3, DU 145, PC-3 and MDA-MB-231; assay: Cell proliferation assay, all cell lines tested; conditions: low dose level 5 μg/mL
[18] = system: Plasmodium falciparum 3D7 rings and trophozoites; assay: Susceptibility of different stages of P. falciparum; conditions: 3D7 parasites, 48 h, 1% initial parasitemia
Plasmodium vinckei = assay: In vivo test against Plasmodium vinckei parasites in mice; conditions: BALB/c female mice, 25 mg/kg intraperitoneally daily for 6 consecutive days in DMSO; vs DMSO control; P=0.0085
[19] = system: Herpes Simplex Virus 1 McIntyre (HSV1); assay: IC50 assay against HSV1 in Vero cells (cytopathic effect); conditions: 100 infectious units of Herpes Simplex 1, up to 5 days
[20] = system: Leishmania donovati MON-2 amastigotes; assay: In vitro test against Leishmania amastigotes in J774 macrophages; conditions: read-out: Amastigotes IC50; infected J774 macrophages
Plasmodium falciparum = assay: ATP levels in the Plasmodium parasite, luciferin/luciferase assay
[21] = spinosad 10 μg/mL, succinate substrate
[22] = spinosad 20 μg/mL, succinate substrate
[23] = spinosad 40 μg/mL, succinate substrate
[24] = spinosad 80 μg/mL, succinate substrate
[25] = BxPC-3, 24 h post end of 24-hour exposure
[26] = DU 145, 24 h post end of 24-hour exposure
[27] = PC-3, 24 h post end of 24-hour exposure
[28] = MDA-MB-231, 24 h post end of 24-hour exposure

## Spinosad
[1]
  inhibition of approximately 20 infectious units of the HSV1 virus: 100%
[1]; more than approximately 20 infectious units
  inhibition of higher virus loads: not inhibited
Vero cells
  state of treated cell monolayer: healthy
  toxicity against Vero cells: no toxicity
[2]
  IC50: about 5 μg/ml
  IC100: about 11.5 μg/ml
[3]
  inhibition of virus: no inhibition
[4]
  inhibition of virus: no inhibition
H460 cells; 20 μg/mL spinosad, 3 hours of treatment
  cytotoxicity: no cytotoxicity
H460 cells; three hours of treatment
  concentration above which cell viability decreases: higher than 20 μg/mL
[5]; 20 μg of spinosad
  ADP stimulation: slight increase
[5]; succinate substrate
  spinosad concentration above which mitochondrial integrity is reduced: above 40 μg/mL
[5]; [21]
  State III respiration (numerator of RCR): 711
  State IV respiration (denominator of RCR): 300
[5]; [22]
  State III respiration (numerator of RCR): 726
  State IV respiration (denominator of RCR): 330
[5]; [23]
  State III respiration (numerator of RCR): 666
  State IV respiration (denominator of RCR): 430
[5]; [24]
  State III respiration (numerator of RCR): 598
  State IV respiration (denominator of RCR): 500
[6]
  IC50: about 0.625 μg/ml
[7]
  CC50: 42.6 ± 17.3 µM
Leishmania donovati; BALB/c female mice, 31.6 mg/kg intraperitoneally daily for 14 consecutive days in DMSO, from two weeks post infection, P=0.05
  elimination of parasites in spleen: 82%
Leishmania donovati; BALB/c female mice, 31.6 mg/kg intraperitoneally daily for 14 consecutive days in DMSO, P=0.083
  elimination of parasites in the liver: 73%
Leishmania donovati; BALB/c mice, 31.6 mg/kg i.p. 14 days, Mann-Whitney test
  impact on liver and spleen weight: no impact
Leishmania donovati; BALB/c mice, treatment period of 14 days
  signs of toxicity: No sign of toxicity
[8]; [25]
  Calculated LC50: 11.1 µg/mL
  Calculated LC100: 31.6 µg/mL
[8]; BxPC-3, spinosad 10 μg/mL
  Cell Survival (% of Control; mean ± S.D.): 54.1 ± 9.8 % of Control
[8]; BxPC-3, spinosad 20 μg/mL
  Cell Survival (% of Control; mean ± S.D.): 25.5 ± 2.6 % of Control
[8]; BxPC-3, spinosad 30 μg/mL
  Cell Survival (% of Control; mean ± S.D.): 5.3 ± 2.6 % of Control
[9]; [26]
  Calculated LC50: 12.5 µg/mL
  Calculated LC100: 32.8 µg/mL
[9]; DU 145, spinosad 10 μg/mL
  Cell Survival (% of Control; mean ± S.D.): 56.8 ± 3.1 % of Control
[9]; DU 145, spinosad 20 μg/mL
  Cell Survival (% of Control; mean ± S.D.): 30.2 ± 4.5 % of Control
[9]; DU 145, spinosad 30 μg/mL
  Cell Survival (% of Control; mean ± S.D.): 7.6 ± 4.1 % of Control
[10]; [27]
  Calculated LC50: 13.3 µg/mL
  Calculated LC100: 34.2 µg/mL
[10]; PC-3, spinosad 10 μg/mL
  Cell Survival (% of Control; mean ± S.D.): 53.8 ± 8.0 % of Control
[10]; PC-3, spinosad 20 μg/mL
  Cell Survival (% of Control; mean ± S.D.): 42.0 ± 9.5 % of Control
[10]; PC-3, spinosad 30 μg/mL
  Cell Survival (% of Control; mean ± S.D.): 5.9 ± 2.5 % of Control
[11]; [28]
  Calculated LC50: 13.4 µg/mL
  Calculated LC100: 36.7 µg/mL
[11]; MDA-MB-231, spinosad 10 μg/mL
  Cell Survival (% of Control; mean ± S.D.): 56.1 ± 13.7 % of Control
[11]; MDA-MB-231, spinosad 20 μg/mL
  Cell Survival (% of Control; mean ± S.D.): 38.0 ± 5.7 % of Control
[11]; MDA-MB-231, spinosad 30 μg/mL
  Cell Survival (% of Control; mean ± S.D.): 13.2 ± 1.4 % of Control
[12]; PC-3, spinosad 5 μg/mL
  Cell Number Doubling Time: 4.17 days
[12]; PC-3, spinosad 10 μg/mL
  Cell Number Doubling Time: 5.55 days
[12]; PC-3, spinosad 15 μg/mL
  Cell Number Doubling Time: 6.24 days
[13]; BxPC-3, spinosad 5 μg/mL
  Cell Number Doubling Time: 3.86 days
[13]; BxPC-3, spinosad 10 μg/mL
  Cell Number Doubling Time: 4.76 days
[13]; BxPC-3, spinosad 15 μg/mL
  Cell Number Doubling Time: 6.25 days
[14]; DU 145, spinosad 5 μg/mL
  Cell Number Doubling Time: 2.89 days
[14]; DU 145, spinosad 10 μg/mL
  Cell Number Doubling Time: 2.83 days
[14]; DU 145, spinosad 15 μg/mL
  Cell Number Doubling Time: 3.18 days
[14]; high dose level 15 μg/mL, DU 145
  cell number doubling time from 3 days post-treatment increased by: approximately 46.5%
[15]; MDA-MB-231, spinosad 5 μg/mL
  Cell Number Doubling Time: 3.99 days
[15]; MDA-MB-231, spinosad 10 μg/mL
  Cell Number Doubling Time: 5.09 days
[15]; MDA-MB-231, spinosad 15 μg/mL
  Cell Number Doubling Time: 7.13 days
[15]; high dose level 15 μg/mL, MDA-MB-231
  cell number doubling time from 3 days post-treatment increased by: approximately 129.3%
[16]
  IC50: 9.5 ± 3.8 µM
[17]
  cell number doubling time from 3 days post-treatment increased by: 27.8-33.2%
[18]
  activity against rings versus trophozoites: same activity against both rings and trophozoites
Plasmodium vinckei
  reduction in the number of Plasmodium vinckei parasites: 70%
[19]
  IC50: about 17.42 μg/ml
[20]
  IC50: 9 ± 3 µM
Plasmodium falciparum; albumin-containing medium (RPMI-1640), within erythrocytes and after isolation, spinosad 5-10 μg/ml in DMSO
  ATP levels in the parasite: reduces
Plasmodium falciparum; isolated parasites in saline/spinosad medium (absence of albumin)
  ATP levels in the parasite: unaffected
